Where a name gives a salt, the structure may show the parent alone.
Target: T1, Type A-monoamine oxidase (Mus musculus, UniProt Q64133)
T1 sequence (Q64133 1-526): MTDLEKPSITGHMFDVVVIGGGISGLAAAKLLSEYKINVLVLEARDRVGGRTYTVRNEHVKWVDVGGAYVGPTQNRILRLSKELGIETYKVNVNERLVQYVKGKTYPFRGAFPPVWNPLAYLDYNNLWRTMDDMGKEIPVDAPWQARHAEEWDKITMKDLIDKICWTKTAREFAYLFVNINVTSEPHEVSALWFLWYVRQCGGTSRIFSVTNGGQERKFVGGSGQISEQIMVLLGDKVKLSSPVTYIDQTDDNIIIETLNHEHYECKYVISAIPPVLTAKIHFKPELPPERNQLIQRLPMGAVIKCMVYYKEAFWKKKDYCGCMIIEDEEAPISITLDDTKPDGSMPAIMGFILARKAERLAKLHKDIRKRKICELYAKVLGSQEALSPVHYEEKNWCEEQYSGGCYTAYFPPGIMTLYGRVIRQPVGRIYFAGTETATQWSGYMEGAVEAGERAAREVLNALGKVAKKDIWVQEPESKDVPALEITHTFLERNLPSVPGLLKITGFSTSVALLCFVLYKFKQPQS
Experiment: Type A-monoamine oxidase inhibitory activity
Type: biochemical
Settings: not given

| SMILES | IC50 [nM] |
| --- | --- |
| CC(C)c1c(OCCN)noc1-c1ccc(Cl)cc1Cl [Example 57, 3-(2-Aminoethoxy)-5-(2,4-dichlorophenyl)-4-isopropylisoxazole hydrochloride] | < 28 |

Same assay, conditions: mouse brain crude mitochondria; substrate 14C-5-HT 100 μM; preincubated at 38° C. for 20 minutes; phosphate buffer pH 7.4; read-out: IC50 (concentration of the compound which decreases the 14C radioactivity of the control by 50%)

| SMILES | IC50 [nM] |
| --- | --- |
| NCCOc1cc(-c2ccc(Cl)cc2)on1 [Example 3, 3-(2-Aminoethoxy)-5-(4-chlorophenyl)isoxazole hydrochloride] | < 28 |
| NCCOc1cc(-c2cccs2)on1 [Example 5, 3-(2-Aminoethoxy)-5-(2-thienyl)isoxazole hydrochloride] | < 28 |
| NCCOc1noc(-c2cccs2)c1Cl [Example 6, 3-(2-Aminoethoxy)-4-chloro-5-(2-thienyl)isoxazole hydrochloride] | < 28 |
| NCCOc1noc(-c2ccccc2)c1Cl [Example 2, 3-(2-Aminoethoxy)-4-chloro-5-phenylisoxazole hydrochloride] | < 28 |
| NCCOc1cc(-c2ccccc2)on1 [Example 1, 3-(2-Aminoethoxy)-5-phenylisoxazole hydrochloride] | < 28 |
| CC(C)c1c(OCCN)noc1-c1ccccc1 [Example 4, 3-(2-Aminoethoxy)-4-isopropyl-5-phenylisoxazole hydrochloride] | < 28 |

The next lines start with the values.

| IC50 [nM] | SMILES |
| --- | --- |
| < 28 | NCCOc1cc(-c2cccnc2)on1 [Example 7, 3-(2-Aminoethoxy)-5-(3-pyridyl)isoxazole hydrochloride] |
| < 28 | NCCOc1noc(-c2cccnc2)c1Cl [Example 8, 3-(2-Aminoethoxy)-4-chloro-5-(3-pyridyl)isoxazole hydrochloride] |
| < 28 | C=CCc1c(OCCN)noc1-c1ccccc1 [Example 60, 4-Allyl-3-(2-aminoethoxy)-5-phenylisoxazole hydrochloride] |
| < 28 | CC(C)c1c(OCCN)noc1-c1ccccc1Cl [Example 58, 3-(2-Aminoethoxy)-5-(2-chlorophenyl)-4-isopropylisoxazole hydrochloride] |
| < 28 | CC(C)c1c(OCCN)noc1-c1ccc(Cl)cc1 [Example 59, 3-(2-Aminoethoxy)-5-(4-chlorophenyl)-4-isopropylisoxazole hydrochloride] |
| < 28 | CC(C)c1c(OCCN)noc1-c1ccco1 [Example 54, 3-(2-Aminoethoxy-5-(2-furyl)-4-isopropylisoxazole hydrochloride] |
| < 28 | CC(C)Cc1c(OCCN)noc1-c1ccccc1 [Example 62, 3-(2-Aminoethoxy)-4-isobutyl-5-phenylisoxazole hydrochloride] |
| < 28 | CC(C)c1c(OCCN)noc1-c1cccs1 [Example 67, 3-(2-Aminoethoxy)-4-isopropyl-5-(2-thienyl)isoxazole hydrochloride] |
